Assay results published in US20240366731A1, “ORAL ALGAL OIL BASED GASTRO-INTESTINAL TRACT PERMEABLE PEPTIDE COMPOSITION” (CELAGENEX RESEARCH (INDIA) PVT. LTD., priority 2021, published 2024).
Several values for one entry are separate records, joined by “and”; a condition that tells them apart may be missing. Identical values can stand only once.

Assay: Study of Composition-3 vs Januvia (Sitagliptin) vs Placebo in T2D adult patients with inadequate glycemic control, 04-week treatment
Format: in vivo, human
Procedure: A study of Composition-3 vs Januvia (Sitagliptin) vs Placebo in adult patients with inadequate glycemic control • 1. Composition-3—Oral insulin—8 mg • 2. Reference—Januvia (Sitagliptin)—100 mg • 3. Placebo
The pivotal study was involved 36 patients divided in to 3 groups of 12 each randomized to 1:1:1 into three cohorts dosed with 8 mg of Composition-3at night, Januvia 100 mg (Sitagliptin) at night and placebo at night.
Patient population-T2D adult patients above age of 21 years with inadequate glycemic control who were managing their condition with diet and metformin monotherapy.
• HbA1c ≥7.5% on metformin ≥500 mg daily • At time of randomization, patients were treated for their diabetes by diet, exercise, and metformin (≥500 mg/day; any type and regimen). […] A negative urine pregnancy test was obtained during Visit 2 and at Visit 4 (prior to randomization). • Males and females of childbearing potential used two methods of contraception (double barrier method), one of which must be an acceptable barrier method from the time of screening to the last study visit
• Patients who meet any of the following criteria was not eligible for this study. • Presence of any clinically significant endocrine disease according to the Investigator (euthyroid patients on replacement therapy was included if the dosage of thyroxine is stable for at least six weeks prior to Screening Visit). • Clinical diagnosis of Type 1 diabetes. • Presence or history of cancer within the past five years except for adequately treated localized basal cell skin cancer or in situ uterine cervical cancer. • Laboratory abnormalities at screening including: • 1. C-peptide <1.0 ng/mL. • 2. Positive pregnancy test in females of childbearing potential (at screening and start of run-in period). • 3. Abnormal serum thyrotropin (TSH) levels >1.5 times the upper limit of normal. • 4. Positive test for hepatitis B surface antigen and/or hepatitis C antibody. • 5. Positive test for HIV. • 6. Serum Cr >1.4 mg/dl in males, >1.3 mg/dl in females. • 7. Any relevant abnormality interfering with the efficacy or the safety assessments during study drug administration. • Use of the following medications: • 1. History of use of insulin for greater than one week in the last six months and any use of insulin in the last six weeks prior to randomization. • 2. Administration of anti-diabetic drugs other than metformin within four weeks prior to randomization visit. Administration of thyroid preparations or thyroxine within six weeks prior to screening visit. […] (Note: Alcohol abuse includes heavy alcohol intake as defined by >3 drinks per day or >14 drinks per week, or binge drinking). • Elevated liver enzymes (alanine transaminase (ALT), […], alkaline phosphatase) greater than two times the upper limit of normal at screening. • Very high triglyceride level (>500 mg/dL) at screening. • Any clinically significant electrocardiogram (ECG) abnormality at screening or cardiovascular disease. Clinically significant cardiovascular disease will include: • 1. History of stroke, transient ischemic attack, or myocardial infarction within six months prior to screening, • 2. History of or currently have New York Heart Associate Class II-IV heart failure prior to screening, or • 3. Uncontrolled hypertension defined as blood pressure ≥160 mmHg (systolic) or ≥100 mmHg (diastolic) at screening.
• The primary endpoint of the study was to compare the efficacy of Composition-3 to Sitagliptin & placebo in improving glycaemic control as assessed by A1c over a 04-week treatment period, with a secondary endpoint of comparing Composition-3 to Sitagliptin & placebo in change from baseline in FPG at week 04 • 1. Change from Baseline in Haemoglobin A1c (A1C) at Week 04 [Time Frame: Baseline and Week 04] A1C was measured as the percentage of glycosylated haemoglobin. Change in A1C following 04 weeks of therapy (i.e., A1C at Week 04 minus A1C at baseline) • 2. […]

With `N[C@@H](CC(=O)N1CCn2c(nnc2C(F)(F)F)C1)Cc1cc(F)c(F)cc1F` [Sitagliptin] the “Mean A1c (HbA1c) % week 04” value (group mean n = 12, Week 04) was 6.66%, the “Mean FPG (mg/dl) week 04” value (group mean n = 12, Week 04) was 160.53 mg/dL and the “% Improvement A1c (HbA1c)” value (group mean n = 12, Week 04 vs baseline) was 14.7%. The “Mean A1c (HbA1c) % baseline” value (group mean n = 12, baseline) was 7.81%, the “Mean FPG (mg/dl) baseline” value (group mean n = 12, baseline) was 200.68 mg/dL and the “FPG (mg/dl) Week 04” value (individual patient, Week 04, before breakfast) was 155.06 mg/dl and 159.18 mg/dl and 156.1 mg/dl and 150.54 mg/dl and 158.1 mg/dl and 166.66 mg/dl and 157.66 mg/dl and 164.78 mg/dl (2×) and 182.58 mg/dl and 152.06 mg/dl and 158.54 mg/dl. For the same molecule, the “A1c (HbA1c) % Week 04” value (individual patient, Week 04, dosed orally at night) was 6.6% (4×) and 6.8% (3×) and 6.5% (2×) and 6.4% (2×) and 7.3%, the “A1c (HbA1c) % Baseline” value (individual patient, baseline, T2D patients on metformin) was 7.9% (2×) and 8% and 7.6% (2×) and 7.7% (3×) and 7.8% (3×) and 8.2% and the “FPG (mg/dl) Baseline” value (individual patient, baseline, before breakfast) was 203.94 mg/dl (2×) and 207.5 mg/dl and 193.26 mg/dl (2×) and 196.82 mg/dl (3×) and 200.38 mg/dl (3×) and 214.62 mg/dl.
